# Test results published in patent US20110038856A1, “METHODS OF TREATING NEOPLASTIC, AUTOIMMUNE AND INFLAMMATORY DISEASES” (Seattle Genetics, Inc., priority 2006, published 2011).
# How the values were obtained:
# [1] = system: primary human CD14+ monocytes
# Description: (§2) Macrophages were harvested, counted, and cultured in 96-well plates at 35,000 cells per well. G-CSF-mobilized CD14^+ monocytes (Cambrex) were cultured in 96-well plates at 100,000 cells per well (adherent cells) in sterile polypropylene dishes (non-adherent cells).
# CD33 [2] = target: T1, CD33 (Homo sapiens, UniProt P20138); test: SGN-33 signaling in HL-60 cells, primary human monocytes and macrophages (CD33 immunoprecipitation, Western blot); format: cell-based; design: endogenous in cells; host or cells: HL-60 (ATCC); primary human CD14+ monocytes (Cambrex); macrophages derived from human PBMCs
# Description: Deglycosylation was confirmed by CE-SDS. […] Cell lysates were prepared and CD33 immunoprecipitated using an anti-CD33 rabbit polyclonal antibody (Santa Cruz Biotechnology, Santa Cruz, Calif.) prior to SDS PAGE gel electrophoresis. Western blot analyses of these samples were performed using the 4G10 phosphotyrosine antibody (Upstate Biotechnology, Temucula, Calif.), anti-CD33 antibody (NovoCastra, Norwell, Mass.), and anti-SHP-1 antibody (Calbiochem, San Diego, Calif.). Control lysate for SHP-1 was prepared from a B cell lymphoma cell line.
# [3] = system: primary human macrophages
# Description: as §2
# [4] = system: primary human macrophages; test: Macrophage migration in response to chemoattractants (CytoSelect Cell Migration Assay); format: cell-based
# Description: (§1) The migration of macrophages in response to challenge with plating media containing 10% human serum, 20% conditioned tumor cell media, or 50 ng/ml TGF-β, VEGF, TNF-α, or IFN-γ was evaluated using the CytoSelect Cell Migration Assay (Cell Biolabs, San Diego, Calif.). […] The study was stopped 18 hours later and migration was evaluated after dissociation of the cells from the membrane followed by detection with Cyquant GR dye.
# as §1, with “serum or” for “serum,”, “media” for “media, or 50 ng/ml TGF-β, VEGF, TNF-α, or IFN-γ”, “studies were” for “study was”, “h” for “hours”
# [5] = system: primary human macrophages; test: Cytokine/chemokine production by primary human macrophages; format: cell-based; details: for production of IL-6, TNF-α, RANTES, and MCP-1: pre-incubation 3 hours with antibody, 24 hours
# Description: Primary human macrophages were generated from long-term cultures of freshly isolated human peripheral blood mononuclear cells (PBMCs; AllCells, Emeryville, Calif. or LifeBlood, Memphis, Tenn.). PBMCs were cultured in tissue culture flasks in RPMI 1640 medium containing glutamine (Invitrogen, Grand Island, N.Y.), 10% heat-inactivated FBS, and antibiotics for 3 to 4 hours. Non-adherent cells were removed by washing with PBS and the adherent cells were cultured in OptiMem-1 medium (Invitrogen) containing 1% heat-inactivated FBS for 1 to 2 hours. The cells were washed with PBS and cultured for 10 to 14 days in X-VIVO-15 medium (Cambrex Bio Science, Walkersville, Md.) containing 500 U/ml GM-CSF (Peprotech, Rocky Hill, N.J.). […]
# KG-1 AML cell line = test: Cytokine production by KG-1 AML cell line; format: cell-based; details: 2.5 μg/ml pre-treatment, then 1 ng/ml TNF-alpha; media harvested 18 h later; versus control antibody
# Description: Media was harvested 18 h later for cytokine analyses.
# [6] = system: patients with advanced myeloid malignancies (AML, MDS, CMML); test: Phase 1 single-arm dose escalation trial in patients with advanced myeloid malignancies
# Description: Entry criteria included CD33 expression on >50% of the marrow blasts to ensure that adequate target antigen was present. […] Clinical response was assessed by bone marrow morphology and hematologic improvement. […] Among AML patients, 6 had antecedent hematologic disorder. Dosing cohorts included 1.5 (6), 2.5 (4), 4 (4), and 8 mg/kg (17).
# [7] = system: patients with relapsed and refractory acute myeloid leukemia (AML); details: low dose with infrequent administration; cited from earlier work
# HEL 92.1.7 cells = test: Complement-dependent cytotoxicity (CDC) on MDR+ CD33-positive AML cell line; format: cell-based, human; details: HEL 92.1.7 cells; FIG. 4
# Description: The purpose of this study was to determine whether the cytotoxic effects of an anti-CD33 antibody (HuM195) on AML cells could be enhanced by combination treatment with chemotherapeutic drugs. An MDR^+, CD33-positive AML cell line (HEL 92.1.7) was either untreated or preincubated with the indicated concentrations of thalidomide or 5-azacytidine for two hours prior to exposure to the anti-CD33 Ab. Cytotoxic activity was measured using a complement-dependent cytotoxicity (CDC) activity.
# CD33 [8] = target: T1, CD33; test: CD33 tyrosine phosphorylation in CD33-positive AML lines (CD33 immunoprecipitation, anti-phosphotyrosine Western blot); format: cell-based; design: endogenous in cells; host or cells: HL-60 (ATCC); primary human CD14+ monocytes (Cambrex); macrophages derived from human PBMCs
# Description: CD33-positive cell lines were treated with anti-CD33 antibodies (lintuzumab and certain commercially available antibodies). Cell extracts were prepared and CD33 was immunoprecipitated using an anti-CD33 antibody (MY9 clone; Beckman Coulter, Calif.). Western blotting was performed with an anti-phosphotyrosine antibody (4G10; Upstate Biotechnologies, Inc., Lake Placid, N.Y.). […] Two forms of CD33 were detected (due to either splicing of CD33 mRNA or post-translational modification of CD33).
# human CD14+ monocytes = test: Cytokine/chemokine production by primary human CD14+ monocytes; format: cell-based
# [9] = HL-60 AML cells and primary human monocytes or macrophages, soluble SGN-33, 30 minutes, FIG. 15
# T1 sequence (P20138 18-364): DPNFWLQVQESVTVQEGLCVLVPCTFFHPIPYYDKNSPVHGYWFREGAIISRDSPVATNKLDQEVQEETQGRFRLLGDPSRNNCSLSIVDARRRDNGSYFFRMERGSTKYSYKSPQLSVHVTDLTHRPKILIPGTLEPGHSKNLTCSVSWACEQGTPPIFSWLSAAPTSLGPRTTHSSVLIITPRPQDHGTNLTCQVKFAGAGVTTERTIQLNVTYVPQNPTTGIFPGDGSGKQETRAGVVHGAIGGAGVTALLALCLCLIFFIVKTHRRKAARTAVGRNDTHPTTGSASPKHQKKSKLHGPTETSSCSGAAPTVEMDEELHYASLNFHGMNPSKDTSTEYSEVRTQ
substance,measurement,setting,value
"SGN-33: anti-CD33 antibody, a humanized version of mouse monoclonal antibody M195",cell viability,[1],not due to an adverse effect
same,phosphorylation of CD33,CD33 [2]; [9],resulted in phosphorylation of CD33
same,recruitment of SHP-1,CD33 [2]; [9],recruitment of SHP-1
same,recruitment of SHP-1 to the CD33 complex,"CD33 [2]; HL-60 and monocytes, 30 minutes, FIG. 16",resulted in recruitment of SHP-1
same,time to phosphorylation of CD33 and recruitment of SHP-1,"CD33 [2]; HL-60 cells, 3 μg/ml soluble SGN-33, FIG. 17",≤ 5 min
same,strength of the phosphorylation response (signal on western blot),"CD33 [2]; primary monocytes compared to HL-60 or primary macrophages, opposite for SHP-1 signal, FIG. 15",appeared to be stronger in primary monocytes
same,cell viability,[3],without interfering with cell viability
same,macrophage migration,"[4]; 10% human serum or 20% conditioned media from RPMI 8226 cells, p<0.05, FIG. 21",significantly reduced
same,blocking of macrophage migration,"[4]; SGN-33 added to neuraminidase-treated macrophages, versus neuraminidase alone, FIG. 14C",greater blocking effect
same,movement of the macrophages toward chemoattractants,"[4]; cells pre-treated, 10% serum or conditioned medium, FIG. 14B",significantly reduced
same,migration of macrophages,"[4]; in response to conditioned tumor cell media, TGF-β, VEGF, TNF-α, and IFN-γ",significantly opposed the migration
same,"levels of IL-6, TNF-α, MCP-1, and RANTES","[5]; macrophages treated 1 h prior to IFN-γ, LPS, or TGF-β, supernatants 18 h later, FIG. 18",significantly reduced
same,"production of IL-6, TNF-α, RANTES, and MCP-1","[5]; in response to IFN-γ, FIG. 6",reduced production
same,"production of IL-6, TNF-α, RANTES, and MCP-1","[5]; in response to conditioned media from RPMI-8226 and Karpus-620 cells, FIG. 7",reduced production
same,levels of TNF-α,"[5]; primary human macrophages, various doses of SGN-33, 1 hr prior to IFN-γ, 18 h, p<0.05, FIG. 20",significantly reduced levels of TNF-α in a dose-dependent manner
same,"production of IL-8, IP-10, M11b, RANTES, and MCP-1",KG-1 AML cell line,reduced the production
same,tolerability,"[6]; 1.5 mg/kg/wk, N=6, previously untreated patients, average age 76 years",well tolerated
same,patients achieving CR,[6]; among 18 patients with AML,4
same,patients achieving CR with incomplete platelet recovery,[6]; among 18 patients with AML,1
same,antitumor activity,[6]; an elderly patient with previously untreated AML,antitumor activity was observed
same,maximal tolerated dose,"[6]; at 1.5 mg/kg/wk, N=6",without any evidence that a maximal tolerated dose has been reached
same,exposure (AUC),[6]; doses 1.5 to 8 mg/kg,increased relative to dose
same,tolerability,[6]; doses up to 8 mg/kg/wk,well tolerated
same,anti-SGN-33 immune responses,[6]; first 15 patients tested,No anti-SGN-33 immune responses were detected
same,Grade 4 adverse events considered related to antibody,"[6]; human, in vivo",none
same,infusion reactions during subsequent doses,"[6]; human, in vivo",uncommon
same,accumulation,[6]; repeat dosing,accumulation was documented with repeat dosing
same,Grade 3 adverse events considered related to antibody,"[6]; tumor lysis syndrome at 4 mg/kg, febrile neutropenia at 8 mg/kg",2
same,chills associated with the first infusion (most common drug-related adverse event),[6]; weekly iv doses of 1.5 to 8 mg/kg,11/31
same,dose limiting toxicity,"[6]; weekly iv doses of 1.5 to 8 mg/kg, 31 patients",has not been observed
same,blast cells,[7],induced significant reductions in blast cells
same,lysis of AML cells (CDC activity),HEL 92.1.7 cells,increased lysis of AML cell lines in a dose-dependent manner
same,"CD33 tyrosine phosphorylation, soluble versus cross-linked antibody","CD33 [8]; HL-60 and U937 cells, FIG. 2",more effective than cross-linked antibody
same,CD33 tyrosine phosphorylation,"CD33 [8]; HL-60 and U937 cells, soluble or cross-linked antibody, compared with control human IgG1, FIG. 2",stimulated CD33 tyrosine phosphorylation
same,CD33 tyrosine phosphorylation,"CD33 [8]; HL-60 cells, both soluble and cross-linked antibody, FIG. 1",stimulated CD33 tyrosine phosphorylation
same,"production of IL-6, TNF-α, MCP-1, IL-8, and RANTES","human CD14+ monocytes; CD14+ primary human monocytes activated with IFN-γ, previous studies (Example 3)",significantly reduced
same,level of RANTES,"human CD14+ monocytes; adherent CD14+ monocytes, IFN-γ stimulated, FIG. 10",reduced
same,level of RANTES,"human CD14+ monocytes; adherent CD14+ monocytes, RPMI-8228 conditioned media stimulated, FIG. 11",reduced
same,level of TNF-α,"human CD14+ monocytes; adherent CD14+ monocytes, basal level, FIG. 11",reduced the basal level
same,"levels of IL-6, MCP-1, TNF-α, and IL-8","human CD14+ monocytes; adherent CD14+ monocytes, basal levels and IFN-γ stimulated levels, 48 hours, FIG. 10",reduced
same,"levels of IL-6, MCP-1, and IL-8","human CD14+ monocytes; adherent CD14+ monocytes, basal levels and RPMI-8228 conditioned media stimulated levels, FIG. 11",reduced
same,"levels of IL-6, IL-8, TNF-α and MCP-1","human CD14+ monocytes; non-adherent CD14+ monocytes upon exposure to SGN-33, FIG. 12",small increases
same,"production of cytokines, chemokines and growth factors","human CD14+ monocytes; non-adherent CD14+ monocytes, IFN-γ, FIG. 12",not inhibited
same,"levels of IL-6, MCP-1, IL8 and RANTES","human CD14+ monocytes; non-adherent CD14+ monocytes, stimulated by RPMI-8226 conditioned media, FIG. 12",reduced
same,"IFN-γ-stimulated production of IL-10, IL-10, IL-12, and MIP-1α","human CD14+ monocytes; primary human monocytes treated 1 hr prior to IFN-γ, supernatants 18 h later, p<0.001, FIG. 19",significantly reduced
same,levels of TNF-α,"human CD14+ monocytes; primary human monocytes, various doses of SGN-33, 1 hr prior to IFN-γ, 18 h, p<0.05, FIG. 20",significantly reduced levels of TNF-α in a dose-dependent manner
